Measurements from US9309200B2, “Benzazepine derivatives, pharmaceutical compositions containing them, and their use in therapy” (AbbVie Deutschland GmbH & Co. KG, priority 2011, dated 2016).

How the values were obtained:
[1] = molecular target: T1, human GlyT1c transporter (Homo sapiens, UniProt P48067); experiment: Radioligand binding assay using recombinant CHO cell membranes expressing human GlyT1; details: read-out: radioligand binding Kiapp
T1 construct: expressed in transfected cells; host or cells: recombinant CHO cells (membranes); the uptake assay names the line hGlyT1c_5_CHO
T1 sequence (P48067 1-706): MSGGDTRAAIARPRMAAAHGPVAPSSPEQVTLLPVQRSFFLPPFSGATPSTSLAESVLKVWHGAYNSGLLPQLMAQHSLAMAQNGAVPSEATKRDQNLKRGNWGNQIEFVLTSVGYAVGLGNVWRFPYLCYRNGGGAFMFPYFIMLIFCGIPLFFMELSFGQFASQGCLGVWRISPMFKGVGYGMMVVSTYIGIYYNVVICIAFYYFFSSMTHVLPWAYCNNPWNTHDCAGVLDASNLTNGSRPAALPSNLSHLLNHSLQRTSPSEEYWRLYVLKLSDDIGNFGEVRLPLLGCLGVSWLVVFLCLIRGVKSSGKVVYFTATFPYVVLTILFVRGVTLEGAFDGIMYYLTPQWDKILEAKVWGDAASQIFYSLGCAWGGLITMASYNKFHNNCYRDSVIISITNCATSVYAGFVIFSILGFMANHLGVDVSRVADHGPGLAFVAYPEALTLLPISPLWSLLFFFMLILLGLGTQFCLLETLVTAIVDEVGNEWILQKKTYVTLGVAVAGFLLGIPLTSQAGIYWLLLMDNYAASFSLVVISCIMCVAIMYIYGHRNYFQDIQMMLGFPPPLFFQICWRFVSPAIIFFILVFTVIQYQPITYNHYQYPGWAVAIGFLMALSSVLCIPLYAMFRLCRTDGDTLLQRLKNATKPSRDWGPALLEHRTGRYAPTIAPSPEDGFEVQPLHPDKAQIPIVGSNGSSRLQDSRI
Protocol: 2. Radioligand Binding Assays Using Recombinant CHO Cell Membranes Expressing Human GlyT1:
Radioligand binding to human GlyT1c transporter-expressing membranes was determined as described in Mezler et al., Molecular Pharmacology 74:1705-1715, 2008.

[2] = Metabolic stability in human liver microsomes (microsomal clearance); assay type: in vitro ADME; details: human liver microsomes 0.25 mg protein/ml, 0.5 μM test substance, NADPH 1.0 mM, pH 7.4, 37° C.
Protocol: The metabolic stability of a compound can be measured for example by incubating a solution of this compound with liver microsomes from particular species (for example rat, dog or human) and determining the half-life of the compound under these conditions (R S Obach, Curr Opin Drug Discov Devel. 2001, 4, 36-44). It is possible in this connection to conclude from an observed longer half-life that the metabolic stability of the compound is improved. The stability in the presence of human liver microsomes is of particular interest because it makes it possible to predict the metabolic degradation of the compound in the human liver. Compounds with increased metabolic stability (measured in the liver microsome test) are therefore probably also degraded more slowly in the liver. The slower metabolic degradation in the liver may lead to higher and/or longer-lasting concentrations (active levels) of the compound in the body, so that the elimination half-life of the compounds of the invention is increased. Increased and/or longer-lasting active levels may lead to a better activity of the compound in therapeutic treatment. In addition, an improved metabolic stability may lead to an increased bioavailability after oral administration, because the compound is subject, after absorption in the intestine, to less metabolic degradation in the liver (so-called first pass effect). An increased oral bioavailability may, owing to an increased concentration (active level) of the compound, lead to a better activity of the compound after oral administration.
Metabolic stability was determined as follows:
0.5 μM test substance was preincubated together with human liver microsomes (0.25 mg of microsomal protein/ml) in 0.05 M potassium phosphate buffer of pH 7.4 in microtiter plates at 37° C. for 5 min. The reaction was started by adding NADPH (1.0 mM). After 0, 5, 10, 15, 20 and 30 min, 65 μl aliquots were removed, and the reaction was immediately stopped and cooled with twice the amount of ethanol. The samples were frozen until analyzed. The remaining concentration of undegraded test substance was determined by LC MSMS. The half-life (T½) was determined from the gradient of the signal of test substance/unit time plot, allowing to calculate the half-life of the test substance, assuming first order kinetics, from the decrease in the concentration of the compound with time. The microsomal clearance (mCl) was calculated from mCl=ln 2/T½/(content of microsomal protein in mg/ml)×1000 (modified from references: Di, The Society for Biomolecular Screening, 2003, 453-462; Obach, DMD, 1999 vol 27. N 11, 1350-1359).

Molecule `Cn1cc(S(=O)(=O)NCc2ccc3c(c2)C(Cc2ccccc2)NCCC3)cn1` (centres unmarked) [Example 34, 1-Methyl-1H-pyrazole-4-sulfonic acid (1-benzyl-2,3,4,5-tetra-hydro-1H-benzo[c]azepin-8-ylmethyl)-amide] has a Ki [1] of no more than 10 nM.

Molecule `Cn1cnc(S(=O)(=O)NCc2ccc3c(c2)C(Cc2ccccc2)NCCC3)c1` (centres unmarked) [Example 35, 1-Methyl-1H-imidazole-4-sulfonic acid (1-benzyl-2,3,4,5-tetra-hydro-1H-benzo[c]azepin-8-ylmethyl)-amide] has a Ki [1] of no more than 10 nM.

`CN(Cc1ccc2c(c1)C(Cc1ccccc1)NCCC2)S(=O)(=O)c1cn(C)cn1` (centres unmarked) [Example 36, 1-Methyl-1H-imidazole-4-sulfonic acid (1-benzyl-2,3,4,5-tetrahydro-1H-benzo[c]azepin-8-ylmethyl)-methyl-amide] gave a Ki [1] of no more than 100 nM.

`CCCN1CCCc2ccc(CNS(=O)(=O)c3cn(C)cn3)cc2C1Cc1ccccc1` (centres unmarked) [Example 37, 1-Methyl-1H-imidazole-4-sulfonic acid (1-benzyl-2-propyl-2,3,4,5-tetrahydro-1H-benzo[c]azepin-8-ylmethyl)-amide] gave a Ki [1] of no more than 10 nM.

In the case of `CN1CCCc2ccc(CNS(=O)(=O)c3cn(C)cn3)cc2C1Cc1ccccc1` (centres unmarked) [Example 38, 1-Methyl-1H-imidazole-4-sulfonic acid (1-benzyl-2-methyl-2,3,4,5-tetrahydro-1H-benzo[c]azepin-8-ylmethyl)-amide], the Ki [1] is reported as no more than 100 nM.

Molecule `CCN1CCCc2ccc(CNS(=O)(=O)c3cn(C)cn3)cc2C1Cc1ccccc1` (centres unmarked) [Example 39, 1-Methyl-1H-imidazole-4-sulfonic acid (1-benzyl-2-ethyl-2,3,4,5-tetrahydro-1H-benzo[c]azepin-8-ylmethyl)-amide] has a Ki [1] of no more than 100 nM.

`CCN(Cc1ccc2c(c1)C(Cc1ccccc1)NCCC2)S(=O)(=O)c1cn(C)cn1` (centres unmarked) [Example 40, 1-Methyl-1H-imidazole-4-sulfonic acid (1-benzyl-2,3,4,5-tetrahydro-1H-benzo[c]azepin-8-ylmethyl)-ethyl-amide] showed a Ki [1] of no more than 100 nM.

Work on `Cn1cnc(S(=O)(=O)NCc2cc3c(cc2F)CCCNC3Cc2ccccc2)c1` (centres unmarked) [Example 41, 1-Methyl-1H-imidazole-4-sulfonic acid (1-benzyl-7-fluoro-2,3,4,5-tetrahydro-1H-benzo[c]azepin-8-ylmethyl)-amide] yielded a Ki [1] of no more than 10 nM.

With `CCS(=O)(=O)NCc1cc2c(cc1F)CCCNC2Cc1ccccc1.O=C(O)C(F)(F)F` (centres unmarked) [Example 42, Ethanesulfonic acid (1-benzyl-7-fluoro-2,3,4,5-tetrahydro-1H-benzo[c]azepin-8-ylmethyl)-amide; compound with trifluoro-acetic acid] the Ki [1] was no more than 1000 nM and the “human mCl” value [2] was “≦50 μl/min/mg”.

With `CCS(=O)(=O)NCCOc1cc2c(cc1F)CCCNC2Cc1ccccc1` (centres unmarked) [Example 43, Ethanesulfonic acid [2-(1-benzyl-7-fluoro-2,3,4,5-tetrahydro-1H-benzo-[c]azepin-8-yloxy)-ethyl]-amide] the Ki [1] was no more than 1000 nM and the “human mCl” value [2] was “≦50 μl/min/mg”.

With `O=C(O)/C=C/C(=O)O.O=S(=O)(CC1CC1)NCc1cc2c(cc1F)CCCNC2Cc1ccccc1` (centres unmarked) [Example 44, N-(1-Benzyl-7-fluoro-2,3,4,5-tetrahydro-1H-benzo[c]azepin-8-ylmethyl)-C-cyclopropyl-methanesulfonamide; compound with (E)-but-2-enedioic acid] the Ki [1] was no more than 100 nM and the “human mCl” value [2] was “≦50 μl/min/mg”.

For `Cn1cnc(S(=O)(=O)NCCOc2cc3c(cc2F)CCCNC3Cc2ccccc2)c1` (centres unmarked) [Example 45, 1-Methyl-1H-imidazole-4-sulfonic acid [2-(1-benzyl-7-fluoro-2,3,4,5-tetrahydro-1H-benzo[c]azepin-8-yloxy)-ethyl]amide], the Ki [1] was no more than 100 nM and the “human mCl” value [2] was “≦50 μl/min/mg”.

In the case of `O=S(=O)(CC1CC1)NCCOc1cc2c(cc1F)CCCNC2Cc1ccccc1` (centres unmarked) [Example 46, N-[2-(1-Benzyl-7-fluoro-2,3,4,5-tetrahydro-1H-benzo[c]azepin-8-yloxy)-ethyl]-C-cyclopropyl-methanesulfonamide], the Ki [1] is reported as no more than 100 nM and the “human mCl” value [2] is reported as “≦50 μl/min/mg”.

In the case of `Cn1cnc(S(=O)(=O)NCc2ccc3c(c2)C(C(C)(C)c2ccccc2)NCCO3)c1` (centres unmarked) [Example 47, 1-Methyl-1H-imidazole-4-sulfonic acid [5-(1-methyl-1-phenyl-ethyl)-2,3,4,5-tetrahydro-benzo[f][1,4]oxazepin-7-ylmethyl]-amide], the Ki [1] is reported as no more than 10000 nM.

In the case of `Cn1cnc(S(=O)(=O)NCCOc2ccc3c(c2)C(Cc2ccccc2)NCCO3)c1` (centres unmarked) [Example 48, 1-Methyl-1H-imidazole-4-sulfonic acid [2-(5-benzyl-2,3,4,5-tetrahydro-benzo[f][1,4]oxazepin-7-yloxy)-ethyl]-amide], the Ki [1] is reported as no more than 100 nM and the “human mCl” value [2] is reported as “≦50 μl/min/mg”.

For `CCS(=O)(=O)NCCOc1ccc2c(c1)C(Cc1ccccc1)NCCO2` (centres unmarked) [Example 50, Ethanesulfonic acid [2-(5-benzyl-2,3,4,5-tetrahydro-benzo[f][1,4]oxazepin-7-yloxy)-ethyl]-amide], the Ki [1] was no more than 10000 nM and the “human mCl” value [2] was “≦50 μl/min/mg”.

In the case of `CCCS(=O)(=O)NCCOc1ccc2c(c1)C(Cc1ccccc1)NCCO2` (centres unmarked) [Example 51, Propane-1-sulfonic acid [2-(5-benzyl-2,3,4,5-tetrahydro-benzo[f][1,4]oxazepin-7-yloxy)-ethyl]-amide], the Ki [1] is reported as no more than 1000 nM and the “human mCl” value [2] is reported as “≦100 μl/min/mg”.

For `O=S(=O)(NCCOc1ccc2c(c1)C(Cc1ccccc1)NCCO2)C1CCC1` (centres unmarked) [Example 52, Cyclobutanesulfonic acid [2-(5-benzyl-2,3,4,5-tetrahydro-benzo[f][1,4]oxazepin-7-yloxy)-ethyl]-amide], the Ki [1] was no more than 1000 nM and the “human mCl” value [2] was “≦100 μl/min/mg”.

In the case of `O=S(=O)(CC1CC1)NCCOc1ccc2c(c1)C(Cc1ccccc1)NCCO2` (centres unmarked) [Example 53, N-[2-(5-Benzyl-2,3,4,5-tetrahydro-benzo[f][1,4]oxazepin-7-yloxy)-ethyl]-C-cyclopropyl-methanesulfonamide], the Ki [1] is reported as no more than 1000 nM and the “human mCl” value [2] is reported as “≦100 μl/min/mg”.
